# Laboratory results: patent US7495104B2, “Quinoline or quinazoline derivatives inhibiting auto-phosphorylation of fibroblast growth factor receptors” (Kirin Beer Kabushiki Kaisha, priority 2001, dated 2009)
# Structures can show the parent of a compound that is named as a salt.
# Biological target: Bek (Homo sapiens, UniProt P21802)
# Assay: Inhibitory activity against Bek-autophosphorylation using ELISA method in OCUM-2MD3 cells
# Assay type: cell-based
# Conditions: 1 hr with compound, read-out: IC50 (concentration necessary for inhibiting 50% of Bek-phosphorylation)
# Summary of the method: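 OCUM-2MD3 human scirrhous gastric cancer cells in 0.1% FCS were exposed to compound for 1 hr at 37° C, then lysed. Phospho-tyrosine proteins were captured with anti-phosphotyrosine antibody, probed with anti-Bek antibody and peroxidase read-out (A450). Positive control (1000 nM) set 0%, untreated 100%; IC50 from multi-level dilutions.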
# Bek, sequence (P21802 431-767 limits assumed): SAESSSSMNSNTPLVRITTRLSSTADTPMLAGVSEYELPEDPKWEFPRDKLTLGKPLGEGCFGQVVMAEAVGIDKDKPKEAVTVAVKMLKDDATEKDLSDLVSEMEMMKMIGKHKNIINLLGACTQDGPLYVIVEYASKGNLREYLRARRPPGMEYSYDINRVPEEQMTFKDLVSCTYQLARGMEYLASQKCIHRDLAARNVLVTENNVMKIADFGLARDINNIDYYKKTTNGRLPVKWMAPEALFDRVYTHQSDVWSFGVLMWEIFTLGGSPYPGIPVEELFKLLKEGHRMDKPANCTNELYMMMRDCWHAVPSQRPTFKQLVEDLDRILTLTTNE
row,Compound,IC50 [nM]
1,"COc1cc2c(Oc3ccc(Nc4ccc(C(C)(C)C)cc4)cc3F)ccnc2cc1OCCN(CCO)CCO [Compound 336, 2-[(2-{4-[4-(4-Tert-butyl-phenylamino)-2-fluoro-phenoxy]-6-methoxy-quinolin-7-yloxy}-ethyl)-(2-hydroxy-ethyl)-amino]-ethanol]",53
2,"COc1cc2c(Oc3ccc(Nc4ccc(C(C)(C)C)cc4)c(Cl)c3)ccnc2cc1OCCN(CCO)CCO [Compound 337, 2-[(2-{4-[4-(4-Tert-butyl-phenylamino)-3-chloro-phenoxy]-6-methoxy-quinolin-7-yloxy}-ethyl)-(2-hydroxy-ethyl)-amino]-ethanol]",252
3,"COc1cc2c(Oc3ccc(NC(=O)NCCC(C)(C)C)cc3Cl)ccnc2cc1OCCCN1CCC(O)CC1 [Compound 338, 1-(3-Chloro-4-{7-[3-(4-hydroxy-piperidin-1-yl)-propoxy]-6-methoxy-quinolin-4-yloxy}-phenyl)-3-(3,3-dimethyl-butyl)-urea]",16.6
4,"COc1cc2c(Oc3ccc(NC(=O)NCCC(C)(C)C)cc3Cl)ccnc2cc1OCCCN1CCC(CO)CC1 [Compound 339, 1-(3-Chloro-4-{7-[3-(4-hydroxymethyl-piperidin-1-yl)-propoxy]-6-methoxy-quinolin-4-yloxy}-phenyl)-3-(3,3-dimethyl-butyl)-urea]",16.4
5,"CCN(CCO)CCOc1cc2nccc(Oc3ccc(NC(=O)NCCC(C)(C)C)cc3)c2cc1OC [Compound 340, 1-(3,3-Dimethyl-butyl)-3-[4-(7-{2-[ethyl-(2-hydroxy-ethyl)-amino]-ethoxy}-6-methoxy-quinolin-4-yloxy)-phenyl]-urea]",18.3
6,"CCN(CCO)CCOc1cc2nccc(Oc3ccc(NC(=O)NCCC(C)(C)C)c(F)c3)c2cc1OC [Compound 341, 1-(3,3-Dimethyl-butyl)-3-[4-(7-{2-[ethyl-(2-hydroxy-ethyl)-amino]-ethoxy}-6-methoxy-quinolin-4-yloxy)-2-fluoro-phenyl]-urea]",28.9
7,"CCN(CCO)CCOc1cc2nccc(Oc3ccc(NC(=O)NCCC(C)(C)C)c(Cl)c3)c2cc1OC [Compound 342, 1-[2-Chloro-4-(7-{2-[ethyl-(2-hydroxy-ethyl)-amino]-ethoxy}-6-methoxy-quinolin-4-yloxy)-phenyl]-3-(3,3-dimethyl-butyl)-urea]",11.6
8,"CCN(CCO)CCCOc1cc2nccc(Oc3ccc(NC(=O)NCCC(C)(C)C)cc3)c2cc1OC [Compound 343, 1-(3,3-Dimethyl-butyl)-3-[4-(7-{3-[ethyl-(2-hydroxy-ethyl)-amino]-propoxy}-6-methoxy-quinolin-4-yloxy)-phenyl]-urea]",< 10
9,"CCN(CCO)CCCOc1cc2nccc(Oc3ccc(NC(=O)NCCC(C)(C)C)c(F)c3)c2cc1OC [Compound 344, 1-(3,3-Dimethyl-butyl)-3-[4-(7-{3-[ethyl-(2-hydroxy-ethyl)-amino]-propoxy}-6-methoxy-quinolin-4-yloxy)-2-fluoro-phenyl]-urea]",< 10
10,"CCN(CCO)CCCOc1cc2nccc(Oc3ccc(NC(=O)NCCC(C)(C)C)c(Cl)c3)c2cc1OC [Compound 345, 1-[2-Chloro-4-(7-{3-[ethyl-(2-hydroxy-ethyl)-amino]-propoxy}-6-methoxy-quinolin-4-yloxy)-phenyl]-3-(3,3-dimethyl-butyl)-urea]",9.8
11,"COc1cc2c(Oc3ccc(Nc4ccc(C(C)(C)C)cc4)cc3Cl)ccnc2cc1OCCN(CCO)CCO [Compound 346, 2-[(2-{4-[4-(4-Tert-butyl-phenylamino)-2-chloro-phenoxy]-6-methoxy-quinolin-7-yloxy}-ethyl)-(2-hydroxy-ethyl)-amino]-ethanol]",294
12,"COc1cc2c(Oc3ccc(Nc4ccc(C(C)(C)C)cc4)cc3)ccnc2cc1OCCNCC1CCCO1 (stereo not shown) [Compound 347, N1-[4-(Tert-butyl)phenyl]-4-[(6-methoxy-7-{2-[(tetrahydro-2-furanylmethyl)amino]ethoxy}-4-quinolyl)oxy]aniline]",354
13,"COc1cc2c(Oc3ccc(Nc4ccc(C(C)(C)C)cc4)cc3)ccnc2cc1OCCN(C)CCO [Compound 348, 2-[(2-{4-[4-(4-Tert-butyl-phenylamino)-phenoxy]-6-methoxy-quinolin-7-yloxy}-ethyl)-methyl-amino]-ethanol hydrochloride]",186
14,"COc1cc2c(Oc3ccc(Nc4ccc(C(C)(C)C)cc4)cc3)ccnc2cc1OCCN(CCO)CCO [Compound 349, 2-[(2-{4-[4-(4-Tert-butyl-phenylamino)-phenoxy]-6-methoxy-quinolin-7-yloxy}-ethyl)-(2-hydroxy-ethyl)-amino]-ethanol hydrochloride]",95.9
15,"COc1cc2c(Oc3ccc(Nc4ccc(C(C)(C)C)cc4)cc3)ccnc2cc1OCCNC1(CO)CCCC1 [Compound 350, [1-(2-{4-[4-(4-Tert-butyl-phenylamino)-phenoxy]-6-methoxy-quinolin-7-yloxy}-ethylamino)-cyclopenthyl]-methanol]",334
16,"CCC(CO)(CO)NCCOc1cc2nccc(Oc3ccc(Nc4ccc(C(C)(C)C)cc4)cc3)c2cc1OC [Compound 351, 2-(2-{4-[4-(4-Tert-butyl-phenylamino)-phenoxy]-6-methoxy-quinolin-7-yloxy}-ethylamino)-2-ethyl-propan-1,3-diol]",232

row,Compound,IC50 [nM]
1,"COc1cc2c(Oc3ccc(Nc4ccc(C(C)(C)C)cc4)cc3)ccnc2cc1OCCN(CC(C)O)CC(C)O (stereo not shown) [Compound 352, 1-[(2-{4-[4-(4-Tert-butyl-phenylamino)-phenoxy]-6-methoxy-quinolin-7-yloxy}-ethyl)-(2-hydroxy-propyl)-amino]-propan-2-ol]",54.7
2,"COc1cc2c(Oc3ccc(Nc4ccc(C(C)(C)C)cc4)cc3)ccnc2cc1OCCNC(C)CO (stereo not shown) [Compound 353, 2-(2-{4-[4-(4-Tert-butyl-phenylamino)-phenoxy]-6-methoxy-quinolin-7-yloxy}-ethylamino)-propan-1-ol]",374
3,"CCC(CO)(CO)NCCOc1cc2nccc(Oc3ccc(NC(=O)NCCC(C)(C)C)cc3)c2cc1OC [Compound 354, 1-(4-{7-[2-(1,1-Bis-hydroxymethyl-propylamino)-ethoxy]-6-methoxy-quinolin-4-yloxy}-phenyl)-3-(3,3-dimethyl-butyl)-urea]",38.4
4,"COc1cc2nccc(Oc3ccc(Nc4ccc(C(C)(C)C)cc4)cc3)c2cc1OCCN1CCC(CO)CC1 [Compound 355, [1-(2-{4-[4-(4-Tert-butyl-phenylamino)-phenoxy]-7-methoxy-quinolin-6-yloxy}-ethyl)-piperidin-4-yl]-methanol]",403
5,"COc1cc2nccc(Oc3ccc(Nc4ccc(C(C)(C)C)cc4)cc3)c2cc1OCCNCCO [Compound 356, 2-(2-{4-[4-(4-Tert-butyl-phenylamino)-phenoxy]-7-methoxy-quinolin-6-yloxy}-ethylamino)-ethanol]",347
6,"COc1cc2nccc(Oc3ccc(Nc4ccc(C(C)(C)C)cc4)cc3)c2cc1OCCN(C)CCO [Compound 357, 2-[(2-{4-[4-(4-Tert-butyl-phenylamino)-phenoxy]-7-methoxy-quinolin-6-yloxy}-ethyl)-methyl-amino]-ethanol]",213
7,"COc1cc2nccc(Oc3ccc(Nc4ccc(C(C)(C)C)cc4)cc3)c2cc1OCCN(CCO)CCO [Compound 358, 2-[(2-{4-[4-(4-Tert-butyl-phenylamino)-phenoxy]-7-methoxy-quinolin-6-yloxy}-ethyl)-(2-hydroxy-ethyl)-amino]-ethanol]",51.7
8,"COc1cc2c(Oc3ccc(NC(=O)NCCC(C)(C)C)cc3)ccnc2cc1OCCNC1(CO)CCCC1 [Compound 359, 1-(3,3-Dimethyl-butyl)-3-(4-{7-[2-(1-hydroxymethyl-cyclopenthylamino)-ethoxy]-6-methoxy-quinolin-4-yloxy}-phenyl)-urea]",254
9,"COc1cc2c(Oc3ccc(NC(=O)NCCC(C)(C)C)cc3)ccnc2cc1OCCN(CC(C)O)CC(C)O (stereo not shown) [Compound 360, 1-[4-(7-{2-[Bis-(2-hydroxy-propyl)-amino]-ethoxy}-6-methoxy-quinolin-4-yloxy)-phenyl]-3-(3,3-dimethyl-butyl)-urea]",19.5
10,"COc1cc2c(Oc3ccc(NC(=O)NCCC(C)(C)C)cc3)ccnc2cc1OCCNC(C)CO (stereo not shown) [Compound 361, 1-(3,3-Dimethyl-butyl)-3-(4-{7-[2-(2-hydroxy-1-methyl-ethylamino)-ethoxy]-6-methoxy-quinolin-4-yloxy}-phenyl)-urea]",29.8
11,"COc1cc2c(Oc3ccc(NC(=O)NCCC(C)(C)C)cc3)ccnc2cc1OCCN(CCO)C1CCCCC1 [Compound 362, 1-[4-(7-{2-[Cyclohexyl-(2-hydroxy-ethyl)-amino]-ethoxy}-6-methoxy-quinolin-4-yloxy)-phenyl]-3-(3,3-dimethyl-butyl)-urea]",49.2
12,"COCC(C)NCCOc1cc2nccc(Oc3ccc(Nc4ccc(C(C)(C)C)cc4)cc3)c2cc1OC (stereo not shown) [Compound 363, N1-[4-(Tert-butyl)phenyl]-4-[(6-methoxy-7-{2-[(2-methoxy-1-methylethyl)amino]ethoxy}-4-quinolyl)oxy]aniline]",364
13,"COc1cc2c(Oc3ccc(Nc4ccc(C(C)(C)C)cc4)cc3)ccnc2cc1OCCN(CCO)C1CCCCC1 [Compound 364, 2-[(2-{4-[4-(4-Tert-butyl-phenylamino)-phenoxy]-6-methoxy-quinolin-7-yloxy}-ethyl)-cyclohexyl-amino]-ethanol]",230
14,"COc1cc2c(Oc3ccc(Nc4ccc(C(C)(C)C)cc4)cc3)ccnc2cc1OCCN(CCO)Cc1ccccc1 [Compound 365, 2-[Benzyl-(2-{4-[4-(4-tert-butyl-phenylamino)-phenoxy]-6-methoxy-quinolin-7-yloxy}-ethyl)-amino]-ethanol]",7130
15,"CCCN(CCO)CCOc1cc2nccc(Oc3ccc(Nc4ccc(C(C)(C)C)cc4)cc3)c2cc1OC [Compound 366, 2-[(2-{4-[4-(4-Tert-butyl-phenylamino)-phenoxy]-6-methoxy-quinolin-7-yloxy}-ethyl)-propyl-amino]-ethanol]",257
